Data from publication PMC4917206, “Chemical Modification of Influenza CD8+ T-Cell Epitopes Enhances Their Immunogenicity Regardless of Immunodominance” (PLoS ONE, 2016).
“Also recorded” adds a separate entry of the source.

How the values were obtained:
HLA-A*0201 = target: T1, HLA-A*0201 (Homo sapiens, UniProt P04439, D140Y/D185E/D98H/E176V/E277Q/G131W/G231S/I119V/I121R/I166T/I218V/L300P/L318F/N151K/N90K/P208A/P217A/Q86G/Q94H/R138H/R169H/T345S); assay type: binding
T1 construct: Soluble MHC was dissolved in PBS containing 0.5 mg/ml bovine γ-globulin; made in house

[1] = system: CD8+ T cells of HLA-A2+ human donors; assay type: cell-based
[2] = system: splenocytes of WT-vaccinated HLA-A2 tg mice; assay type: cell-based, mouse; set-up: key to response compared with WT peptide control, mouse splenocytes: *: Lower response than WT peptide
HLA-A2 transgenic mice = settings: mouse, in vivo; for IFN-γ ELISpot response after restimulation with WT peptide: sc

| Substance | FP binding score, percentage inhibition of tracer peptide binding, 4h (HLA-A*0201) [%] | FP binding score, percentage inhibition of tracer peptide binding, 24h (HLA-A*0201) [%] | DC model: IFN-γ-positive CD8+ T cells, Average [1] | rank by T cell activation, DC model [1] | Mouse splenocytes (ex vivo assay), Average [2] | rank by T cell activation, mouse splenocytes [2] | response compared with WT peptide control, mouse splenocytes [2] | T cell (IFN-γ) response of vaccinated HLA-A2 tg mice, restimulation not specified or both (HLA-A2 transgenic mice) | IFN-γ ELISpot response after restimulation with WT peptide (HLA-A2 transgenic mice) |
| --- | --- | --- | --- | --- | --- | --- | --- | --- | --- |
| FMYSDFHF[2-AOC] [F19] | 87 | 86 | 0.07 | Lower 3 | 62 | – | – | – | – |
| FMYSDFHF[CHA] [F49] | 88 | 86 | 0.18 | Upper 3 | 60 | Lower 3 | – | – | – |
| FMYSDFHF[CSET] [F54] | 82 | 80 | 0.14 | Upper 3 | 78 | – | – | – | – |
| FMYSDFHF[CpALA] [F52] | 81 | 78 | 0.13 | – | 79 | – | – | – | – |
| FMYSDFHF[HPG] [F63] | 81 | 78 | 0.08 | – | 83 | – | – | – | – |
| F[2-AOC]LSTVLGV [N177] | 90 | 88 | 0.04 | – | 46 | – | – | – | – |
| F[2-AOC]YSDFHF[CHA] [F48] | 93 | 92 | 0.11 | – | 61 | – | – | – | – |
| F[2-AOC]YSDFHF[NLE] [F69] | 90 | 89 | 0.08 | Lower 3 | 63 | – | – | – | – |
| GILGFV[BUTGLY]TL [G20] | 82 | 79 | 0.07 | Lower 3 | 36 | – | – | – | – |
| NMLSTVLG[CpALA] [N122] | 65 | 60 | – | – | 128 | – | – | – | – |
| NM[2-AOC]STVLGV [N41] | 78 | 73 | 0.08 | Upper 3 | 5 | – | – | – | – |
| N[2-AOC]LSTVLGV [N40] | 71 | 67 | 0.06 | – | 375 | Upper 3 | N40 ^* | – | – |
| [2-AOC]MLSTVLGV [N39] | 68 | 63 | 0.05 | – | 334 | – | – | – | – |
| [2-AOC]MYSDFHFI [F95] | 82 | 80 | 0.12 | – | 90 | – | – | – | – |
| [3-PYRA]ILGFVFT[2-AOC] [G29] | 44 | 38 | 0.12 | – | 39 | – | – | – | – |
| [3-PYRA]MLSTVLGV [N43] | 47 | 41 | 0.06 | – | 108 | – | – | – | – |
| [3-PYRA]MLSTVLG[2-AOC] [N8] | 85 | 82 | 0.01 | Lower 3 | 1 | Lower 3 | – | – | – |
| [3-PYRA]MYSDFHFI [F100] | 79 | 73 | – | – | 104 | Upper 3 | – | improved T cell responses; also recorded: higher homologous and heterologous responses | higher responses compared to WT-peptide vaccination; also recorded: higher IFN-γ responses than WT peptide-vaccinated mice |

| Substance | FP binding score, percentage inhibition of tracer peptide binding, 4h (HLA-A*0201) [%] | FP binding score, percentage inhibition of tracer peptide binding, 24h (HLA-A*0201) [%] | DC model: IFN-γ-positive CD8+ T cells, Average [1] | rank by T cell activation, DC model [1] | Mouse splenocytes (ex vivo assay), Average [2] | rank by T cell activation, mouse splenocytes [2] | response compared with WT peptide control, mouse splenocytes [2] | T cell (IFN-γ) response of vaccinated HLA-A2 tg mice, restimulation not specified or both (HLA-A2 transgenic mice) | IFN-γ ELISpot response after restimulation with WT peptide (HLA-A2 transgenic mice) |
| --- | --- | --- | --- | --- | --- | --- | --- | --- | --- |
| [3-THI]MLSTVLG[2-AOC] [N98] | 83 | 79 | 0.04 | – | 93 | – | – | – | – |
| [3-THI][2-AOC]YSDFHFI [F102] | 92 | 91 | 0.06 | Lower 3 | 96 | Upper 3 | F102 ^* | – | – |
| [4-FPHE]MYSDFHFI [F105] | 86 | 78 | 0.08 | – | 62 | – | – | – | – |
| [4-FPHE][2-AOC]LSTVLGV [N95] | 92 | 90 | 0.07 | – | 3 | – | – | – | – |
| [BCA][2-AOC]YSDFHFI [F112] | 92 | 91 | – | – | 86 | – | – | – | – |
| [CSET][2-AOC]YSDFHFI [F118] | 95 | 93 | – | – | 81 | – | – | – | – |
| [CSME][2-AOC]LSTVLGV [N169] | 89 | 87 | 0.09 | Upper 3 | 366 | – | – | – | – |
| [NLE]MLSTVLGV [N52] | 54 | 46 | 0.03 | – | 341 | – | – | – | – |
| [NVA]MLSTVLG[2-AOC] [N15] | 71 | 65 | 0.07 | – | 3 | Lower 3 | – | – | – |
| [OM-HS][2-AOC]LSTVLGV [N91] | 91 | 87 | – | – | 344 | – | – | – | – |
| [SOME]MLSTVLGV [N61] | 62 | 54 | – | – | 348 | – | – | – | – |
| [THR-BZL]MLSTVLGV [N176] | 73 | 70 | 0.03 | – | 355 | – | – | – | – |
| [THR-BZL]MYSDFHFI [F142] | 80 | 77 | 0.08 | – | 79 | – | – | – | – |
| [THR-BZL][2-AOC]YSDFHFI [F141] | 94 | 93 | – | – | 67 | – | – | – | – |
| [am-phg]MLSTVLG[2-AOC] [N11] | 90 | 88 | 0.03 | Lower 3 | 3 | Lower 3 | – | – | – |
| [am-phg]MYSDFHF[2-AOC] [F7] | 91 | 90 | 0.13 | – | 54 | Lower 3 | – | – | – |
| [am-phg][CpALA]LGFVFTL [G27] | 92 | 91 | 0.1 | – | 35 | – | – | – | – |
| [am-phg][NVA]YSDFHFI [F193] | 85 | 81 | – | – | – | – | – | lowest homologous and heterologous responses | only showed higher responses than WT peptide at a vaccination dose of 25 nmol |
